Source: PubChem BioAssay (NCI)
Where “and” joins values, the source holds several entries; their conditions need not be identical. Equal values may be shown once.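 Where inhibition never reached the appropriate level, the endpoint shown equals the highest concentration tested. Otherwise, values were interpolated linearly from a five-concentration, 48-hour dose response in 96-well plates. GI50 is the concentration that inhibits growth by half. Definition used: TGI = concentration required for complete inhibition of growth.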

Each compound was assayed on OVCAR-8 ovarian (assay: growth of human tumour cells (NCI), 48 h).
CC(=O)Nc1ccc(-c2nnc(SCC(=O)Nc3ccc([N+](=O)[O-])cc3)o2)cc1 showed a TGI of 29.9 µM. N.N.N.N.O=[N+]([O-])[O-].[Co+3].[N-]=[N+]=[N-].[N-]=[N+]=[N-] gave a TGI of over 100 µM. Work on COC(=O)C1CCC(=O)N1C(c1ccccc1)c1ccc(OC)c(OC)c1 (centres undefined) yielded a TGI of over 100 µM. Oc1cccc2c(Cl)ccnc12 showed a TGI of over 100 µM. With Cc1cccc(/C=N/NC(=S)Nc2ccccc2)n1 the TGI was 8.92 µM. For N#CC1=C(N)N(c2ccccc2)C(c2ccco2)C1(C#N)C#N (centres undefined), the TGI was 51.8 µM. Cc1cc(=O)[nH]c(NN2C(Cl)C(=O)C2c2ccccc2O)n1 (centres undefined) gave a TGI of over 100 µM. Compound CC(C)c1ccc(/C=C2/C=C(c3ccc4ccccc4c3)OC2=O)cc1 has a TGI of over 100 µM. COc1ccc(/C=C2\CCC(C)C3=C2NC(=S)NC3c2ccc(OC)c(OC)c2)cc1OC (centres undefined) showed a TGI of over 90.2 µM. With COc1ccc2c(=O)c(O)c(-c3ccc(OC)c(OC)c3)oc2c1 the TGI was over 100 µM. With COc1ccc(C(OCC2OC(n3cc(C)c(=O)[nH]c3=O)CC2n2cc(Cn3cc(I)c(=O)[nH]c3=O)nn2)(c2ccccc2)c2ccccc2)cc1 (centres undefined) the TGI was over 100 µM. For C=C(C1=CC(=O)C(C)(C)O1)[C@@H]1CC=C([C@@H]2CC[C@H]3[C@@]2(C)CC[C@H]2C(C)(C)C(=O)[C@H](O)C[C@]32C)[C@H](O)O1, the TGI was 4.75 µM. In the case of CC1=CC2C(O1)C1C(=O)C=CC(=O)C1=CC2[N+](=O)[O-] (centres undefined), the TGI is reported as 60.2 µM. In the case of C=C(Br)C(C)(Cl)CCC(Br)C(C)(C)Cl (centres undefined), the TGI is reported as over 100 µM. Cc1c2cnccc2c(C)c2c1c1ccccc1n2CCCN was tested, and the GI50 was 0.205 µM and the TGI was 1.41 µM and 1.22 µM. For O=C(CCC(=O)c1ccc(Cl)cc1)NO, the TGI was over 100 µM. In the case of COc1c(C)c(C/C=C(\C)CCCCO[Si](c2ccccc2)(c2ccccc2)C(C)(C)C)c(OC)c(OC)c1OC, the TGI is reported as 35.6 µM. Work on CN1CCN([C@H]2C[C@H]3[C@@H]4CC=C5C[C@@H](O)CC[C@]5(C)[C@H]4CC[C@]3(C)C2=O)CC1 yielded a TGI of over 100 µM. Compound COc1ccc(C2c3cc4c(cc3OC(NNS(=O)(=O)c3ccc(C)cc3)C2C)OCO4)cc1 (centres undefined) has a TGI of over 100 µM. Compound CNC(=O)OCC1=C(COC(=O)NC)C(C)N(c2ccc(OC)cc2)C1 (centres undefined) has a TGI of over 100 µM. With CCC12C=CCN3CCC4(C(=C(C(=O)OC)[C@@H]1O)Nc1ccccc14)C32 (some centres undefined) the TGI was 5.33 µM. For O=C(O)CN(CC(=O)O)C1CCCCC1N(CC(=O)O)CC(=O)NCCN=C=S (centres undefined), the TGI was over 100 µM. Cc1nc(C(N)=S)sc1/C(CC(=O)C(=O)Nc1cccc2ccc(O)cc12)=N\NC(=O)c1ccncc1 showed a TGI of over 100 µM. Cc1cc(O)c2c(=O)c3ccccc3[nH]c2c1 showed a TGI of 70.2 µM. In the case of N=c1n(C(=O)N2CCCC2)c2cc(Cl)ccc2n1C1=NCCN1, the TGI is reported as over 100 µM. In the case of COc1nc(N)c(C(=O)CCl)c(=O)n1C, the TGI is reported as 52.8 µM. Work on [N-]=[N+]=Nc1cc(=O)oc2ccccc12 yielded a TGI of over 100 µM. For Nc1cccc2cc(Cl)cnc12, the TGI was over 100 µM. C=C1c2nc3ccccc3n2C=C(c2ccccc2)N1c1ccc([N+](=O)[O-])cc1 gave a TGI of 43.4 µM. In the case of Cc1ccccc1-n1c(=O)c2ncn(CCCl)c2n(-c2ccccc2C)c1=S, the TGI is reported as over 100 µM.

What follows are compounds tested on SF-268 CNS (assay: growth of human tumour cells (NCI), 48 h).
CC(=O)Nc1ccc(-c2nnc(SCC(=O)Nc3ccc([N+](=O)[O-])cc3)o2)cc1 showed a TGI of 27.7 µM. In the case of N.N.N.N.O=[N+]([O-])[O-].[Co+3].[N-]=[N+]=[N-].[N-]=[N+]=[N-], the TGI is reported as over 100 µM. COC(=O)C1CCC(=O)N1C(c1ccccc1)c1ccc(OC)c(OC)c1 (centres undefined) gave a TGI of over 100 µM. Compound Oc1cccc2c(Cl)ccnc12 has a TGI of over 39.3 µM. With Cc1cccc(/C=N/NC(=S)Nc2ccccc2)n1 the TGI was over 100 µM. With N#CC1=C(N)N(c2ccccc2)C(c2ccco2)C1(C#N)C#N (centres undefined) the TGI was over 100 µM. Compound Cc1cc(=O)[nH]c(NN2C(Cl)C(=O)C2c2ccccc2O)n1 (centres undefined) has a TGI of over 100 µM. In the case of CC(C)c1ccc(/C=C2/C=C(c3ccc4ccccc4c3)OC2=O)cc1, the TGI is reported as over 100 µM.
